Measured values from ChEMBL document CHEMBL4396865, “Current advances of triazole alcohols derived from fluconazole: Design, in vitro and in silico studies” (2019).
≈ marks a conversion by molar mass, not a printed value.

Tests used:
Type in all cases: functional
[1] = test system: Candida albicans; test: Antifungal activity against Candida albicans; conditions: Candida albicans; for MIC: read-out: MIC
[2] = test system: Pichia norvegensis; test: Antifungal activity against Candida mycoderma
[3] = test system: Candida tropicalis; test: Antifungal activity against Candida tropicalis; conditions: Candida tropicalis
[4] = test system: Cryptococcus neoformans; test: Antifungal activity against Cryptococcus neoformans; conditions: Cryptococcus neoformans
[5] = test system: Candida albicans; test: Potency index, ratio of fluconazole MIC to test compound MIC for Candida albicans
[6] = test system: Kluyveromyces marxianus; test: Antifungal activity against Candida kefyr; conditions: Kluyveromyces marxianus
[7] = test system: Candida albicans; test: Antifungal activity against Candida albicans ATCC 76615 after 24 hrs by microbroth dilution method; conditions: ATCC 76615, 24 h
[8] = test system: Aspergillus fumigatus; test: Antifungal activity against Aspergillus fumigatus; conditions: Aspergillus fumigatus
[9] = test system: Trichophyton rubrum; test: Antifungal activity against Trichophyton rubrum; conditions: Trichophyton rubrum
[10] = test system: Candida parapsilosis; test: Antifungal activity against Candida parapsilosis; conditions: Lodderomyces parapsilosis

Row | Structure (SMILES) | MIC [1] [µg/mL] | MIC [2] [µg/mL] | MIC80 [3] [µM] | MIC80 [4] [µM] | MIC80 [6] [µM] | MIC80 [1] [µM] | MIC80 [7] [µM] | MIC80 [8] [µM] | MIC80 [9] [µM] | MIC80 [10] [µM] | Ratio [5]
1 | O=C(O)c1cn(C2CC2)c2c(Cl)c(N3CCC(NCC(O)(Cn4cncn4)c4ccc(Cl)c(Cl)c4)C3)c(F)cc2c1=O (centres undefined) | 0.25 to 2 (≈ 0.393 to 3.15 µM) | 0.25 to 2 (≈ 0.393 to 3.15 µM) |  |  |  |  |  |  |  |  | 
2 | O=C(O)c1cn(C2CC2)c2c(Cl)c(N3CCC(NCC(O)(Cn4cncn4)c4ccc(F)c(F)c4)C3)c(F)cc2c1=O (centres undefined) | 0.25 to 2 (≈ 0.415 to 3.32 µM) | 0.25 to 2 (≈ 0.415 to 3.32 µM) |  |  |  |  |  |  |  |  | 
3 | O=C(O)c1cn(C2CC2)c2c(Cl)c(N3CCC(NCC(O)(Cn4cncn4)c4ccc(F)cc4F)C3)c(F)cc2c1=O (centres undefined) | 0.25 to 2 (≈ 0.415 to 3.32 µM) | 0.25 to 2 (≈ 0.415 to 3.32 µM) |  |  |  |  |  |  |  |  | 
4 | OC(CN1CCC(OCc2ccccc2)CC1)(Cn1cncn1)c1ccc(F)cc1F (centres undefined) |  |  | 0.01 to 0.56 (≈ 0.00428 to 0.24 µg/mL) | 0.01 to 0.56 (≈ 0.00428 to 0.24 µg/mL) | 0.01 to 0.56 (≈ 0.00428 to 0.24 µg/mL) | 0.01 to 0.56 (≈ 0.00428 to 0.24 µg/mL) | 0.01 to 0.56 (≈ 0.00428 to 0.24 µg/mL) | 0.01 to 0.56 (≈ 0.00428 to 0.24 µg/mL) | 0.01 to 0.56 (≈ 0.00428 to 0.24 µg/mL) | 0.01 to 0.56 (≈ 0.00428 to 0.24 µg/mL) | 82
5 | OC(CN1CCC(OCc2ccccc2Cl)CC1)(Cn1cncn1)c1ccc(F)cc1F (centres undefined) |  |  | 0.01 to 2.33 (≈ 0.00463 to 1.08 µg/mL) | 0.01 to 2.33 (≈ 0.00463 to 1.08 µg/mL) | 0.01 to 2.33 (≈ 0.00463 to 1.08 µg/mL) | 0.01 (≈ 0.00463 µg/mL) | 0.01 to 2.33 (≈ 0.00463 to 1.08 µg/mL) | 0.55 to 2.33 (≈ 0.255 to 1.08 µg/mL) | 0.03 to 0.15 (≈ 0.0139 to 0.0694 µg/mL) | 0.01 to 2.33 (≈ 0.00463 to 1.08 µg/mL) | 82
6 | OC(CN1CCC(OCc2cccc(Br)c2)CC1)(Cn1cncn1)c1ccc(F)cc1F (centres undefined) |  |  | 0.01 to 0.56 (≈ 0.00507 to 0.284 µg/mL) | 0.01 to 0.56 (≈ 0.00507 to 0.284 µg/mL) | 0.01 to 0.56 (≈ 0.00507 to 0.284 µg/mL) | 0.01 to 0.56 (≈ 0.00507 to 0.284 µg/mL) | 0.01 to 0.56 (≈ 0.00507 to 0.284 µg/mL) | 0.01 to 0.56 (≈ 0.00507 to 0.284 µg/mL) | 0.01 to 0.56 (≈ 0.00507 to 0.284 µg/mL) | 0.01 to 0.56 (≈ 0.00507 to 0.284 µg/mL) | 82
7 | OC(CN1CCC(OCc2ccc(F)cc2)CC1)(Cn1cncn1)c1ccc(F)cc1F (centres undefined) |  |  | 0.01 to 2.33 (≈ 0.00446 to 1.04 µg/mL) | 0.01 to 2.33 (≈ 0.00446 to 1.04 µg/mL) | 0.01 to 2.33 (≈ 0.00446 to 1.04 µg/mL) | 0.01 (≈ 0.00446 µg/mL) | 0.01 to 2.33 (≈ 0.00446 to 1.04 µg/mL) | 0.55 to 2.33 (≈ 0.246 to 1.04 µg/mL) | 0.03 to 0.15 (≈ 0.0134 to 0.067 µg/mL) | 0.01 to 2.33 (≈ 0.00446 to 1.04 µg/mL) | 82

Further lines, with some results ahead:

Row | MIC [1] [µg/mL] | MIC [2] [µg/mL] | MIC80 [3] [µM] | MIC80 [4] [µM] | MIC80 [6] [µM] | MIC80 [1] [µM] | MIC80 [7] [µM] | MIC80 [8] [µM] | MIC80 [9] [µM] | MIC80 [10] [µM] | Structure (SMILES) | Ratio [5]
8 | 0.25 to 2 (≈ 0.427 to 3.42 µM) | 0.25 to 2 (≈ 0.427 to 3.42 µM) |  |  |  |  |  |  |  |  | O=C(O)c1cn(C2CC2)c2c(Cl)c(N3CCC(NCC(O)(Cn4cncn4)c4ccc(F)cc4)C3)c(F)cc2c1=O (centres undefined) | 
9 |  |  | 0.01 to 2.33 (≈ 0.00497 to 1.16 µg/mL) | 0.01 to 2.33 (≈ 0.00497 to 1.16 µg/mL) | 0.01 to 2.33 (≈ 0.00497 to 1.16 µg/mL) | 0.01 (≈ 0.00497 µg/mL) | 0.01 to 2.33 (≈ 0.00497 to 1.16 µg/mL) | 0.55 to 2.33 (≈ 0.274 to 1.16 µg/mL) | 0.03 to 0.15 (≈ 0.0149 to 0.0746 µg/mL) | 0.01 to 2.33 (≈ 0.00497 to 1.16 µg/mL) | OC(CN1CCC(OCc2ccc(Cl)cc2Cl)CC1)(Cn1cncn1)c1ccc(F)cc1F (centres undefined) | 82
10 |  |  | 0.01 to 2.33 (≈ 0.00497 to 1.16 µg/mL) | 0.01 to 2.33 (≈ 0.00497 to 1.16 µg/mL) | 0.01 to 2.33 (≈ 0.00497 to 1.16 µg/mL) | 0.01 (≈ 0.00497 µg/mL) | 0.01 to 2.33 (≈ 0.00497 to 1.16 µg/mL) | 0.55 to 2.33 (≈ 0.274 to 1.16 µg/mL) | 0.03 to 0.15 (≈ 0.0149 to 0.0746 µg/mL) | 0.01 to 2.33 (≈ 0.00497 to 1.16 µg/mL) | OC(CN1CCC(OCc2ccc(Cl)c(Cl)c2)CC1)(Cn1cncn1)c1ccc(F)cc1F (centres undefined) | 82
11 |  |  | 0.01 to 2.33 (≈ 0.00463 to 1.08 µg/mL) | 0.01 to 2.33 (≈ 0.00463 to 1.08 µg/mL) | 0.01 to 2.33 (≈ 0.00463 to 1.08 µg/mL) | 0.01 (≈ 0.00463 µg/mL) | 0.01 to 2.33 (≈ 0.00463 to 1.08 µg/mL) | 0.55 to 2.33 (≈ 0.255 to 1.08 µg/mL) | 0.03 to 0.15 (≈ 0.0139 to 0.0694 µg/mL) | 0.01 to 2.33 (≈ 0.00463 to 1.08 µg/mL) | OC(CN1CCC(OCc2cccc(Cl)c2)CC1)(Cn1cncn1)c1ccc(F)cc1F (centres undefined) | 82
12 |  |  | 0.01 to 2.33 (≈ 0.00453 to 1.06 µg/mL) | 0.01 to 2.33 (≈ 0.00453 to 1.06 µg/mL) | 0.01 to 2.33 (≈ 0.00453 to 1.06 µg/mL) | 0.01 (≈ 0.00453 µg/mL) | 0.01 to 2.33 (≈ 0.00453 to 1.06 µg/mL) | 0.55 to 2.33 (≈ 0.249 to 1.06 µg/mL) | 0.03 to 0.15 (≈ 0.0136 to 0.068 µg/mL) | 0.01 to 2.33 (≈ 0.00453 to 1.06 µg/mL) | N#Cc1ccc(COC2CCN(CC(O)(Cn3cncn3)c3ccc(F)cc3F)CC2)cc1 (centres undefined) | 82
13 |  |  | 0.01 to 0.56 (≈ 0.00446 to 0.25 µg/mL) | 0.01 to 0.56 (≈ 0.00446 to 0.25 µg/mL) | 0.01 to 0.56 (≈ 0.00446 to 0.25 µg/mL) | 0.01 to 0.56 (≈ 0.00446 to 0.25 µg/mL) | 0.01 to 0.56 (≈ 0.00446 to 0.25 µg/mL) | 0.01 to 0.56 (≈ 0.00446 to 0.25 µg/mL) | 0.01 to 0.56 (≈ 0.00446 to 0.25 µg/mL) | 0.01 to 0.56 (≈ 0.00446 to 0.25 µg/mL) | OC(CN1CCC(OCc2ccccc2F)CC1)(Cn1cncn1)c1ccc(F)cc1F (centres undefined) | 82
